Reference: BindingDB's records for doi:10.1016/s0960-894x(01)00003-8 (Shionogi, 2001)

Experiment: Concentration required to inhibit human Cytosolic phospholipase A2

In the case of CCCCC/C=C\C/C=C\C/C=C\C/C=C\CCCC(=O)C(F)(F)F [Arachidonyltrifluoromethane], the IC50 is reported as 420 nM.
O=C1N=C(O)SC1=Cc1ccc(C(=O)NC[C@@H]2C[C@@H](OCc3ccccc3-c3ccccc3)CN2C(=O)c2ccccc2C(=O)c2ccccc2)cc1 [N-[(2S,4R)-1-(2-Benzoyl-benzoyl)-4-(biphenyl-2-ylmethoxy)-pyrrolidin-2-ylmethyl]-4-[2,4-dioxo-thiazolidin-(5Z)-ylidenemethyl]-benzamide] showed an IC50 of 165 nM.
Work on O=C1N=C(O)SC1=Cc1ccc(C(=O)NC[C@@H]2C[C@@H](S(c3ccccc3)(c3ccccc3)c3ccccc3)CN2C(=O)c2ccccc2C(=O)c2ccc(F)cc2F)cc1 [N-[(2S,4R)-1-[2-(2,4-Difluoro-benzoyl)-benzoyl]-4-(triphenyl-lambda*4*-sulfanyl)-pyrrolidin-2-ylmethyl]-4-[2,4-dioxo-thiazolidin-(5Z)-ylidenemethyl]-benzamide] yielded an IC50 of 4.2 nM.
